# Patent US10730826B2, “Ketone inhibitors of lysine gingipain” (CORTEXYME, INC., priority 2016, dated 2020)
# Values joined by “and” are separate entries in the source; they are usually repeats but may differ in a detail not shown here. Equal values may be shown once. Read-outs that look alike come from different tables or passages of the source.
# Experiments:
# Cathepsin H = Cathepsin H (Homo sapiens (Human), UniProt P09668); assay: Cathepsin H inhibition assay; assay type: biochemical; settings: for IC50: read-out: IC50 (nM) CatH
# Procedure: (§1) The capacities of compounds of the present invention to inhibit the activity of cathepsins B, H, K, L, and S were measured in similar assays. Boc-Leu-Arg-Arg-AMC (20 μM) in sodium acetate buffer (50 mM, pH 5.5) containing DTT (1 mM) and EDTA (2 mM) was used for the Cathepsin B assay. L-Arg-AMC (20 μM) in sodium acetate buffer (50 mM, pH 5.5) containing DTT (1 mM) and EDTA (2 mM) was used for the Cathepsin H assay. Z-Phe-Arg-AMC (10 μM) in HEPES buffer (50 mM, pH 7.4) containing DTT (2.5 mM) and EDTA (1 mM) was used for the Cathepsin K assay. Z-Phe-Arg-AMC (20 μM) in sodium acetate buffer (50 mM, pH 5.5) containing DTT (1 mM) and EDTA (2 mM) was used for the Cathepsin L assay. Z-Leu-Arg-AMC (10 μM) in sodium acetate buffer (25 mM, pH 4.5) containing DTT (2.5 mM) and NaCl (50 mM) was used for the Cathepsin S assay. The capacities of the compounds to inhibit the activity of cathepsins F, V, and Z were also measured.
# (§2) Further assays to measure the inhibitory activity of compounds of the present invention against Kgp and cathepsins B, H, K, L, and S were conducted as described in Example 66. The capacities of the compounds to inhibit the activity of cathepsins F, V, and Z were also measured.
# Cathepsin S = Cathepsin S (Homo sapiens (Human), UniProt P25774); assay: Cathepsin S inhibition assay; assay type: biochemical; settings: for IC50: read-out: IC50 (nM) CatS
# Procedure: as §1, §2
# Cathepsin L = Cathepsin L (Homo sapiens (Human), UniProt P07711); assay: Cathepsin L inhibition assay; assay type: biochemical; settings: for IC50: read-out: IC50 (nM) CatL
# Procedure: as §1, §2
# lysine gingipain (Kgp) [1] = biological target: lysine gingipain (Kgp) (Porphyromonas gingivalis (Bacteroides gingivalis), UniProt P72194); assay: biochemical; assay type: biochemical; settings: IC50 (nM) Kgp
# Procedure: (§3) The specific assay conditions were as follows. Buffer: pH=7.5, 100 mM Tris-HCl, 75 mM NaCl, 2.5 mM CaCl2), 10 mM cysteine, 1% DMSO after all additions. Protein: 0.1 nM Kgp, isolated from culture of Porphyromonas gingivalis, as described by Pike et al. (J. Biol. Chem. 1994, 269(1), 406), and Potempa and Nguyen (Current Protocols in Protein Science. 2007, 21.20.1-21.20.27). Fluorogenic substrate: 10 μM Z-His-Glu-Lys-MCA. Time=90 minutes. Temperature=37° C.
# as §2
# cathepsin V = cathepsin V (Homo sapiens (Human), UniProt O60911); assay: Cathepsin V inhibition assay; assay type: biochemical; settings: Table 4; read-out: IC50 (nM) CatV
# Procedure: as §1, §2
# Cathepsin K = Cathepsin K (Homo sapiens (Human), UniProt P43235); assay: Cathepsin K inhibition assay; assay type: biochemical; settings: for IC50: read-out: IC50 (nM) CatK
# Procedure: as §1, §2
# Cathepsin B = Cathepsin B (Homo sapiens (Human), UniProt P07858); assay: Cathepsin B inhibition assay; assay type: biochemical; settings: for IC50: read-out: IC50 (nM) CatB
# Procedure: as §1, §2
# lysine gingipain (Kgp) [2] = assay: biochemical; assay type: biochemical, Porphyromonas gingivalis; settings: as compared to reference compound 73
# Procedure: as §3, §2
# cathepsin Z = cathepsin Z (Homo sapiens (Human), UniProt Q9UBR2); assay: Cathepsin Z inhibition assay; assay type: biochemical; settings: Table 4; read-out: IC50 (nM) CatZ
# Procedure: as §1, §2
# cathepsin F = cathepsin F (Homo sapiens (Human), UniProt Q9UBX1); assay: Cathepsin F inhibition assay; assay type: biochemical; settings: Table 4; read-out: IC50 (nM) CatF
# Procedure: as §1, §2
# [3] = Pharmacokinetics in male CD-1 mice dosed p.o.; assay type: in vivo; settings: p.o. 10 mg/kg, compared to reference compound 73
# Kgp [4] = biological target: T1, Kgp (Porphyromonas gingivalis (Bacteroides gingivalis), UniProt Q51817); assay: Activity probe labelling of Kgp in P. gingivalis-infected Jurkat cells (SDS-PAGE); assay type: cell-based; settings: infected Jurkat cells, preincubation before probe 15a
# Source text: The identity of this labeled protein in P. gingivalis-infected cells was confirmed to be Kgp by Western blot.
# Kgp [5] = biological target: T1, Kgp; assay: Cy5 activity-based probe detection of Kgp in P. gingivalis lysate; assay type: binding
# Procedure: It has a warhead that binds to the Kgp active site, a peptide-based core, and a Cy5 fluorophore for detection. Labeled target proteins can be visualized by biochemical separation of a sample with fractionation by 2-D gel electrophoresis and detection of fluorescent signals from Cy5 at the appropriate excitation and emission wavelength. Incubation of a fixed concentration of the probe following binding of Kgp to a test compound (e.g., a candidate Kgp inhibitor) results in binding of the activity probe to Kgp active sites not already bound by the test compound.
# 10^8 bacteria were collected and centrifuged at 5000 g for 10 min at 4° C., and the supernatant was discarded. The bacterial cell pellet was lysed with 1 mL of B-Per lysis buffer (Thermo Fischer) on ice for 10 min, then centrifuged for 10 min at 14000 g, 4° C. Supernatant-containing protein lysate was collected. Biological samples were lysed with B-Per lysis buffer for 10 min at 4° C.
# Biological samples, P. gingivalis lysate or purified Kgp were incubated with quenchable Cy5 probe compound 71 (1 μM) for 1 h at 37° C. with shaking. Then, samples were denatured with NUPAGE LDS sample buffer (Thermo Fisher) containing 50 mM DTT at 95° C. for 10 min and subjected to SDS-PAGE electrophoresis using a Criterion 4-15% precast gel (Bio-Rad) and Tris/Glycine/SDS running buffer (Bio-Rad). The gel was run at 75V for 10 min and then 125V for 1.5 h. The gel was then removed from the plastic cassette and subjected to Cy5 visualization with a ChemiDoc imaging system (Bio-Rad).
# Samples were labeled with quenchable Cy5 probe compound 71 (1 μM) for 1 h at 37° C. with shaking. For immunoprecipitation of Cy5 labeled Kgp, the samples were then incubated with 10 μg of rabbit polyclonal CAB102 antibody with rotation overnight at 4° C. Then, samples were incubated with prewashed Dynabead Protein G beads with rotation for 20 min at room temperature. The samples were washed 4 times with 200 μL of washing buffer, using a magnetic rack. […]
Compound,IC50 (Cathepsin H; Table 4) [nM],IC50 (Cathepsin S; Table 4) [nM],IC50 (Cathepsin L; Table 4) [nM],IC50 (lysine gingipain (Kgp) [1]; Table 4) [nM],IC50 (cathepsin V) [nM],IC50 (Cathepsin K; Table 4) [nM],IC50 (Cathepsin B; Table 4) [nM],IC50 (cathepsin F) [nM],also measured
NCCCCC(NC(=O)c1ccc(F)nc1)C(=O)COc1ccon1 (centres unmarked) [Compound 55a],> 10000,> 10000,6380,0.12,> 10000,1000,> 10000,,
"NCCCC[C@H](NC(=O)C1CCCC1)C(=O)COc1c(F)cccc1F [Compound 2, (S)—N-(7-amino-1-(2,6-difluorophenoxy)-2-oxoheptan-3-yl)cyclopentanecarboxamide]",,,,,,,,,CatH IC50 relative to reference compound 73 (Cathepsin H; ratio to IC50 of compound 73): more than ten times higher; CatS IC50 relative to reference compound 73 (Cathepsin S; ratio to IC50 of compound 73): more than ten times higher; CatL IC50 relative to reference compound 73 (Cathepsin L; ratio to IC50 of compound 73): more than 100 times; selectivity for Kgp over endogenous cathepsins (lysine gingipain (Kgp) [2]): increased selectivity; CatK IC50 relative to reference compound 73 (Cathepsin K; ratio to IC50 of compound 73): more than 100 times; CatB IC50 relative to reference compound 73 (Cathepsin B; ratio to IC50 of compound 73): more than 20 times
"NCCCC[C@H](NC(=O)C1CCCC1)C(=O)COc1c(F)c(F)cc(F)c1F (stereo in doubt) [Compound 73, N-[7-amino-2-oxo-1-(2,3,5,6-tetrafluorophenoxy)heptan-3-yl]cyclopentanecarboxamide, reference compound]",110,> 10000,700,,5720,20,485,500,IC50 (Cathepsin H; Table 3): 110 nM; IC50 (cathepsin Z): > 10000 nM; IC50 (Cathepsin S; Table 3): 9980 nM; IC50 (Cathepsin L; Table 3): 700 nM; IC50 (Cathepsin K; Table 3): 20 nM; IC50 (Cathepsin B; Table 3): 485 nM
"COC(C)(C)C(=O)N[C@@H](CCCCN)C(=O)COc1c(F)ccc(F)c1F [Compound 47, (S)—N-(7-amino-2-oxo-1-(2,3,6-trifluorophenoxy)heptan-3-yl)-2-methoxy-2-methylpropanamide]",,,,,,,,,concentrations in the brain and cerebrospinal fluid (CSF) [3]: increased concentrations in the brain and cerebrospinal fluid (CSF); oral availability [3]: improved oral availability; plasma concentrations [3]: increased plasma concentrations; selectivity for Kgp over endogenous cathepsins (lysine gingipain (Kgp) [2]): far more selective
NCCCCC(NC(=O)C1CCCC1)C(=O)COC(C(F)(F)F)C(F)(F)F (centres unmarked) [Compound 18a],> 10000,> 10000,> 10000,0.5,> 10000,> 10000,> 10000,> 10000,IC50 (lysine gingipain (Kgp) [1]; Table 3): 0.5 nM
COC(C)(C)C(=O)NC(CCCCN)C(=O)COc1c(F)ccc(F)c1F (centres unmarked) [Compound 47a],> 10000,> 10000,> 10000,0.06,> 10000,9000,> 10000,> 10000,
COC(C)(C)C(=O)NC(CCCCN)C(=O)COC(C(F)(F)F)C(F)(F)F (centres unmarked) [Compound 69a],> 10000,> 10000,> 10000,0.21,,> 10000,> 10000,> 10000,IC50 (cathepsin Z): > 10000 nM
NCCCCC(NC(=O)c1ccccn1)C(=O)COc1c(F)ccc(F)c1F (centres unmarked) [Compound 50a],> 10000,> 10000,> 10000,0.09,> 10000,1000,> 10000,> 10000,
NCCCCC(NC(=O)C1CCCC1)C(=O)COc1c(F)cccc1F (centres unmarked) [Compound 2a],1550,> 10000,> 10000,< 0.05,> 10000,2290,> 10000,,IC50 (Cathepsin H; Table 3): 1550 nM; IC50 (Cathepsin S; Table 3): > 100000 nM; IC50 (Cathepsin L; Table 3): > 100000 nM; IC50 (lysine gingipain (Kgp) [1]; Table 3): ≤ 0.05 nM and 0.11 nM; IC50 (Cathepsin K; Table 3): 2290 nM; IC50 (Cathepsin B; Table 3): > 10000 nM
C[N+]1=C(/C=C/C=C/C=C2\N(CCCCCC(=O)NCc3cn(-c4cccc(C(=O)N[C@@H](CCCCN)C(=O)COc5c(F)cccc5F)c4)nn3)c3ccc(S(=O)(=O)O)cc3C2(C)C)C(C)(C)c2cc(S(=O)(=O)O)ccc21 [Compound 70],,,,,,,,,blocking of probe 15a binding to Kgp by preincubation (Kgp [4]): blocked the binding of the probe 15a to Kgp
C[N+]1=C(/C=C/C=C/C=C2\N(CCCCCC(=O)NCc3cn(-c4cccc(C(=O)N[C@@H](CCCCN)C(=O)COc5c(F)cc(CNC(=O)C6CCN(S(=O)(=O)c7ccccc7-c7c8cc/c(=[N+]9\CCc%10cc(S(=O)(=O)O)ccc%109)cc-8oc8cc(N9CCc%10cc(S(=O)(=O)O)ccc%109)ccc78)CC6)cc5F)c4)nn3)c3ccc(S(=O)(=O)O)cc3C2(C)C)C(C)(C)c2cc(S(=O)(=O)O)ccc21 [Compound 71],,,,,,,,,specificity of detection (Kgp [5]; W83 vs Kgp knockout strain): specific for Kgp; apparent limit of detection of Kgp (Kgp [5]; probe 1 μM): 500 CFU
"COC(C)(C)C(=O)N[C@@H](CCCCN)C(=O)COC(C(F)(F)F)C(F)(F)F [Compound 69, (S)—N-(7-amino-1-((1,1,1,3,3,3-hexafluoropropan-2-yl)oxy)-2-oxoheptan-3-yl)-2-methoxy-2-methylpropanamide]",,,,,,,,,concentrations in the brain and cerebrospinal fluid (CSF) [3]: increased concentrations in the brain and cerebrospinal fluid (CSF); oral availability [3]: improved oral availability; plasma concentrations [3]: increased plasma concentrations; selectivity for Kgp over endogenous cathepsins (lysine gingipain (Kgp) [2]): far more selective
